Experimental data taken from patent publication US20140017165A1, “DNA REPAIR ENZYME INHIBITOR NANOPARTICLES AND USES THEREOF” (priority 2011, published 2014).

Tests used:
ATM = ATM (Homo sapiens, UniProt Q13315); conditions: cited from earlier work
DNA-PK = DNA-PK (Homo sapiens, UniProt P78527); conditions: cited from earlier work
[1] = Maximum tolerated dose (MTD) of wortmannin formulations in non-tumor-bearing mice; conditions: mouse, in vivo, other: injected, mg/kg of wortmannin, in cremophor solution or encapsulated in nanoparticle (2% w/w)
Protocol: MTD, defined as the highest possible dose resulting in no animal deaths and less than 20% weight loss was evaluated for wortmannin formulations. Non-tumor-bearing mice (NOD/SCID, C57BL/6, CB6F1 and CD1) were injected with varying amounts of wortmannin nanoparticle and wortmannin in cremophor normalized to mg wortmannin injected/kg of mice body weight. The animals were weighed and observed daily for any change in physical activity. Weight loss greater than 20% and/or lethargy were interpreted as indications of toxicity and the mice were immediately euthanized.
Table 2 compares the maximum tolerated dose (MTD) of wortmannin in cremophor and wortmannin nanoparticle in different mouse strains.

[2] = Toxicity profile (hematologic toxicity, hepatotoxicity) in CD1 mice after tail vein i.v. injection; type: in vivo; conditions: single tail vein i.v.; for Hematologic Toxicity: Monocytes: normal range 0.1-1.5; for Hematologic Toxicity: Lymphocytes: normal range 0.5-5; for Hematologic Toxicity: Granulocytes: normal range 1.2-8; for Hematologic Toxicity: WBC: normal range 3.5-10; for Hepatotoxicity: ALT / Hepatotoxicity: AST: plasma, normal range 40-50 U/L
Protocol: CD1 mice were given tail vein i.v. injection with different wortmannin formulations (wortmannin nanoparticle or wortmannin in cremophor) at the indicated doses (⅕^th the MTD or 1/10th the MTD). After 24 h, submandibular bleeding was performed. Blood (100-200 ul) was collected in heparin coated tubes to prevent coagulation. Whole blood samples were immediately submitted for blood toxicity to the Animal Clinical Laboratory Core Facility at UNC. For liver toxicity studies, blood samples were centrifuged (15000×g for 10 minutes) to separate blood cells from the plasma and samples were submitted for analysis.
Table 3 and 4 show the toxicity profile in mice of wortmannin in cremophor and wortmannin nanoparticle.
Table 3 and 4. Toxicity profile in CD1 mice post i.v. injection of wortmannin formulations. Mice were treated with indicated doses of wortmannin or wortmannin nanoparticle containing an equivalent dose of wortmannin (2% w/w). (Single tail vein i.v. injection, toxicity profile 3 d post injection).

[3] = cited from earlier work
cancer cells = conditions: Bae et al. 2007, FIG. 6; cited from earlier work
[4] = 1/10th MTD of Wtmn (0.07 mg/kg)

Chain of ATM (Q13315 whole entry, species assumed): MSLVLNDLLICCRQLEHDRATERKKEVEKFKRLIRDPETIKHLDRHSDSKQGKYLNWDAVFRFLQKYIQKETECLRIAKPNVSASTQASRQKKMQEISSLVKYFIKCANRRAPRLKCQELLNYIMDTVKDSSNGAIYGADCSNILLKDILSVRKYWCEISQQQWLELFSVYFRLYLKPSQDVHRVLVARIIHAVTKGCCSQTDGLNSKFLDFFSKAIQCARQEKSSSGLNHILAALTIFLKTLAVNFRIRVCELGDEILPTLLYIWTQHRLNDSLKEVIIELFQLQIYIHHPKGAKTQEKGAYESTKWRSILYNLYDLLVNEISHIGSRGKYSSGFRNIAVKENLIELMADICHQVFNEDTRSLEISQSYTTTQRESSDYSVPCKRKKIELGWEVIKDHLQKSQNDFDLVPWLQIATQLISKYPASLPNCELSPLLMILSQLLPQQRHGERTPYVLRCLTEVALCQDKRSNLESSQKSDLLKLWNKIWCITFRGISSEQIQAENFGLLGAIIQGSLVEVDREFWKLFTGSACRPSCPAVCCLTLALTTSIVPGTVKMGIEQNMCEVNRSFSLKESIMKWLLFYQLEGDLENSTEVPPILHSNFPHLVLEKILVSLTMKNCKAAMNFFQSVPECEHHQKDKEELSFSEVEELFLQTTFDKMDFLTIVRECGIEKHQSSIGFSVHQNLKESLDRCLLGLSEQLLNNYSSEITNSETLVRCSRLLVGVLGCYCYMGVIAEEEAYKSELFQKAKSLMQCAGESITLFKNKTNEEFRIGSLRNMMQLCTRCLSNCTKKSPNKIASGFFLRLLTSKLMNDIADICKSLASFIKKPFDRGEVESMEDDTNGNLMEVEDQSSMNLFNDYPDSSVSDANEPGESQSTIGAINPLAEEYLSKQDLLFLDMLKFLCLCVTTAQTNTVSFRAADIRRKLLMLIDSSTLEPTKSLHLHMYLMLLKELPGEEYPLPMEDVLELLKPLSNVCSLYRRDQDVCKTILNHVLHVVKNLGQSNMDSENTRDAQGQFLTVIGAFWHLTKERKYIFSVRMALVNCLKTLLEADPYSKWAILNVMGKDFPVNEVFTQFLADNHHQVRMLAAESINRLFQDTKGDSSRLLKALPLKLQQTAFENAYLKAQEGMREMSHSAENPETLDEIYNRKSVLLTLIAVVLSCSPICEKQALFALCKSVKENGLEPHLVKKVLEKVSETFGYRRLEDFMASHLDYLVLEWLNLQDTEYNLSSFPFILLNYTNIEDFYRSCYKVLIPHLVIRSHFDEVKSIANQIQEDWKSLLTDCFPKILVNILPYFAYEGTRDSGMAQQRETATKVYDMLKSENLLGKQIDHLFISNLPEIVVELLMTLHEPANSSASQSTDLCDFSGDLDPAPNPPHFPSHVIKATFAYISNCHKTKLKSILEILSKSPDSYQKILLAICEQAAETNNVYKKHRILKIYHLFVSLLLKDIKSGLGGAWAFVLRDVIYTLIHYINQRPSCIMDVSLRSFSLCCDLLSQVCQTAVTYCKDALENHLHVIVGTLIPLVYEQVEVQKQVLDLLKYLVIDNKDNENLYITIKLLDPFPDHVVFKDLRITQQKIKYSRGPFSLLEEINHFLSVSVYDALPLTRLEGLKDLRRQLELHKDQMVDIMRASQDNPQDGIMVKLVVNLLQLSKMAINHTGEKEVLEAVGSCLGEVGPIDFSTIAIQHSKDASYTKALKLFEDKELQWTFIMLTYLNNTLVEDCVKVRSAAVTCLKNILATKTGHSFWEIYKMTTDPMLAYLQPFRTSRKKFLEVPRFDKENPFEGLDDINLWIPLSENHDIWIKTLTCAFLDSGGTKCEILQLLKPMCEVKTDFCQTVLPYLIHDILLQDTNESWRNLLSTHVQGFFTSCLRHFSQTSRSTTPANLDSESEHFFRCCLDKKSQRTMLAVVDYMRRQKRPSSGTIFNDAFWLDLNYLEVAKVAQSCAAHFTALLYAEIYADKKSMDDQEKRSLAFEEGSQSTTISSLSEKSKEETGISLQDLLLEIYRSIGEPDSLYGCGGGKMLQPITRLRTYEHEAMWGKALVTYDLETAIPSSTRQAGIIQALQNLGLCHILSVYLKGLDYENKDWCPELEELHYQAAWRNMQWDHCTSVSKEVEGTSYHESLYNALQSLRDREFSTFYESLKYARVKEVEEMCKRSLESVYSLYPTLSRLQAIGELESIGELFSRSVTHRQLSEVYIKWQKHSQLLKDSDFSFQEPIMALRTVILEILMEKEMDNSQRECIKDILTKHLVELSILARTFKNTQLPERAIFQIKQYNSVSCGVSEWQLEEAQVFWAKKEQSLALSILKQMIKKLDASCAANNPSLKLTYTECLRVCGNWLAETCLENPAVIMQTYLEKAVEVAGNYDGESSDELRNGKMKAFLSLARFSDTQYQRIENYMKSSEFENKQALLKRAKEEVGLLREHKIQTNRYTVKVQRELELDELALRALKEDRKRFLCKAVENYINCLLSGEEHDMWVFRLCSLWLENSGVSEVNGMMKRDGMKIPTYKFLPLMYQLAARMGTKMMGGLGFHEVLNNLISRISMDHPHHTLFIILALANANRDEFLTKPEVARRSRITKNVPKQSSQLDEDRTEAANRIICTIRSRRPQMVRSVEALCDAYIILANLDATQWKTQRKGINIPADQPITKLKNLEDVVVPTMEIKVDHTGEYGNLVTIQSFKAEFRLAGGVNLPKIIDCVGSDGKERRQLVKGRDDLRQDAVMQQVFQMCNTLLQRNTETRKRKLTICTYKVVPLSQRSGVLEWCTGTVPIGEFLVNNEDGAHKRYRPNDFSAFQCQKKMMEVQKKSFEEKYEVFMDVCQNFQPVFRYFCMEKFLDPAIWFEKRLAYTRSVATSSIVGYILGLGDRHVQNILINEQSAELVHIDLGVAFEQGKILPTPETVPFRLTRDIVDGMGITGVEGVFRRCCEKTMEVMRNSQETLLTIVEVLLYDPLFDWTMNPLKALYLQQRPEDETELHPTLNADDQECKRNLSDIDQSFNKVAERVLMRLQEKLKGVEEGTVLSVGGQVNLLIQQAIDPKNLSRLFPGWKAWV

O=c1cc(-c2cccc3c2Sc2ccccc2S3)oc(N2CCOCC2)c1 [KU-55933, 2-morpholin-4-yl-6-thianthren-1-yl-pyran-4-one]
inhibits ATM (ATM): low nanomolar concentrations

O=c1cc(N2CCOCC2)oc2c(-c3cccc4c3sc3ccccc34)cccc12 [NU7441]
IC50 (DNA-PK): 13 nM

COC[C@H]1OC(=O)c2coc3c2[C@@]1(C)C1=C(C3=O)[C@@H]2CCC(=O)[C@@]2(C)C[C@H]1OC(C)=O [Wortmannin, wortmannin]
MTD ([1]; C57BL/6 (Black) mice): 0.7 mg/kg | MTD ([1]; CB6F1 (Brown) mice): 0.5 mg/kg | MTD ([1]; CD1 (White) mice): 0.7 mg/kg | MTD ([1]; NOD/SCID mice): 0.7 mg/kg | Hematologic Toxicity: Monocytes ([2]; 1/5th MTD of Wtmn (0.14 mg/kg)): 0.55 ± 0.07 103/μl | Hematologic Toxicity: Lymphocytes ([2]; 1/5th MTD of Wtmn (0.14 mg/kg)): 0.4 ± 0.42 103/μl | Hematologic Toxicity: Granulocytes ([2]; 1/5th MTD of Wtmn (0.14 mg/kg)): 0.8 ± 0.14 103/μl | Hematologic Toxicity: WBC ([2]; 1/5th MTD of Wtmn (0.14 mg/kg)): 2.8 ± 0.28 103/μl | Hepatotoxicity: ALT ([2]; 1/5th MTD of Wtmn (0.14 mg/kg)): 134 ± 17 U/L | Hepatotoxicity: AST ([2]; 1/5th MTD of Wtmn (0.14 mg/kg)): 44 ± 3 U/L | Hematologic Toxicity: Monocytes [2, 4]: 0.8 ± 0.42 103/μl | Hematologic Toxicity: Lymphocytes [2, 4]: 0.9 ± 0.28 103/μl | Hematologic Toxicity: Granulocytes [2, 4]: 2.4 ± 0.11 103/μl | Hematologic Toxicity: WBC [2, 4]: 4.3 ± 0.13 103/μl | Hepatotoxicity: ALT [2, 4]: 64 ± 11 U/L | Hepatotoxicity: AST [2, 4]: 40 ± 7 U/L | half-life in serum [3]: approximately 10 minutes | cytotoxicity against cancer cells (cancer cells): unexpectedly low cytotoxicity
